Several values for one entry are separate records, joined by “and”; a condition that tells them apart may be missing. Equal entries are not always repeated. Activity calls are given as the source filed them.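 The calls were made as follows: active = compounds giving half or more protection of infected cells from virus-caused growth loss, again on retest; inactive = the rest.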 Where a SMILES comes first, the peptide text is derived from it. The star is where a group is joined. Boc = CC(C)(C)OC(=O)* Where only a bound is given, the exact number is not on record here.

The experiment has as its system CEM cells HIV-1 protection, formazan growth assay. The experiment can be described thus: NCI AIDS Antiviral Assay. The settings on record: for IC50: measured here: growth of uninfected CEM cells. In a few lines: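 Protection of CEM cells against HIV-1 measured as cell growth via soluble formazan read-out, with five concentrations tested on both infected and uninfected cells; failure to protect may reflect toxicity.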

For `N#C/C(=C\c1ccc([N+](=O)[O-])cc1)C(=O)c1ccccc1`, the EC50 is more than 45.7 µM and the half-inhibitory concentration (IC50) was found to be 24.5 µM.

`CC(C)OP(=O)(OC(C)C)/C(=N/N)NNc1ccc([N+](=O)[O-])cc1`: the EC50 was more than 138 µM and the IC50 came out at 83.2 µM.

In the case of `O=S1(=O)C2CCCC1C(Cl)CC2` (stereo not drawn), the EC50 was more than 47.9 µM and the 50% inhibitory concentration (IC50) is more than 47.9 µM.

Turning to `Nc1cc(Nc2ccc(Cl)[nH]c2=S)nc(N)n1`, the EC50 was more than 186 µM and the 50% inhibitory concentration (IC50) is 5.75 µM.

For the compound `COc1ccc(/C=N/Nc2nc3ccccc3c(=O)n2-c2ccccc2)c(OCc2ccccc2)c1`, the EC50 is more than 200 µM.

`CCN(c1ccc(Br)cc1)c1c(Br)c(=O)nc2ccccn12`: the EC50 is more than 525 µM and the half-maximal inhibitory concentration (IC50) came to 97.7 µM.

For `Nc1ccn(C2OC(COC(=O)c3ccccc3)C(OC(=O)c3ccccc3)C2I)c(=O)n1` (stereo not drawn), the EC50 is more than 200 µM and the IC50 turned out to be 35.5 µM.

`Cn1c(=O)c(-c2ccccc2)c(N=[N+]=[N-])c2ccccc21`: the EC50 is more than 200 µM and the IC50 came out at 135 µM.

For the compound `O=C(CN1CCN(c2ccccn2)CC1)N1CCCn2c1nc1ccccc1c2=O`, the EC50 is more than 200 µM and the half-inhibitory concentration (IC50) is more than 200 µM.

With `COc1cc2c(cc1C)C1=C(C)C(=O)OC1[C@@H](O)[C@@H]2C` (stereo partly drawn), the EC50 is more than 661 µM and the half-inhibitory concentration (IC50) is 245 µM.

For `C[C@]12CCC(=O)C=C1CC[C@@H]1C2CC[C@]2(C)NC(=O)C(C#N)CC12` (stereo partly drawn), the outcome was inactive.

In the case of `O=C(Nc1cccc(C(F)(F)F)c1)C(=O)C1NC(=S)NC1=O` (stereo not drawn), the EC50 was more than 191 µM and the half-maximal inhibitory concentration (IC50) is more than 191 µM.

For `Cc1nc(-c2cc3ccccc3oc2=O)cs1`, the result was inactive.

On to `CCOc1ccc(NC(=O)CC2C(=O)Nc3ccccc3S2=O)cc1` (stereo not drawn), for which the EC50 was more than 7.59 µM and the IC50 is more than 7.59 µM.

As for `O=C(CC(C(=O)c1ccsc1)c1ccc2c(c1)OCO2)c1ccccc1` (stereo not drawn), the EC50 was more than 200 µM and the concentration for half-maximal inhibition (IC50) is more than 200 µM.

As to `c1cncc(C2c3[nH]c4ccccc4c3CCN2CCN2CCCCC2)c1` (stereo not drawn), the EC50 is more than 3.98 µM and the IC50 was more than 3.98 µM.

Turning to `CO/C=C/CCCNCc1ccccc1`, the EC50 was more than 457 µM and the concentration for half-maximal inhibition (IC50) was more than 457 µM.

Turning to `CC(=O)c1c(O)ccc(O)c1-n1nc(C)c([N+](=O)[O-])c1C`, the EC50 is more than 224 µM and the 50% inhibitory concentration (IC50) was more than 224 µM.

For `CCCC/C=C(/CCCNC=O)[Si](C)(C)C`, the EC50 is more than 537 µM and the half-maximal inhibitory concentration (IC50) is more than 537 µM.

For `CC1CCC2(C(=O)O)CCC3(C)C(=CCC4C5(C)CCC(O)C(C)(C)C5CCC43C)C2C1C` (stereo not drawn), the EC50 was more than 200 µM and the half-inhibitory concentration (IC50) amounted to 14.8 µM.

In the case of `CC(=O)c1sc2c(c1OC(=O)c1cccs1)c(=O)n(-c1ccccc1)c(=S)n2-c1ccccc1`, the EC50 was more than 200 µM and the concentration for half-maximal inhibition (IC50) was found to be 3.8 µM.

On to `C=C1CN(S(=O)(=O)c2ccc(C)cc2)CCCN(Cc2ccccn2)CCCN(S(=O)(=O)c2ccc(C)cc2)C1`, for which the EC50 is more than 200 µM and the IC50 is more than 200 µM.

For `Cc1nc2c(ncn2CCO)c(=O)[nH]1`, the EC50 was more than 200 µM and the 50% inhibitory concentration (IC50) was more than 200 µM.

For the compound `CC(C)(C)OC(=O)N/N=C(/N)Cc1ccc(Cl)cc1`, the EC50 was more than 200 µM and the half-inhibitory concentration (IC50) is 162 µM.

Regarding `Cc1noc2c1CC(=O)c1ccccc1OC2`, the EC50 was more than 389 µM and the half-inhibitory concentration (IC50) stood at 224 µM.

Take `CC(C)(C)c1n[nH]c(C(C)(C)C)c1N=O`: the EC50 is more than 200 µM and the IC50 worked out at 97.7 µM.

Regarding `CC(=O)Oc1c(C)cc2c(c1C)C(C)(C)CN2C(=O)C(C)(C)C`, the EC50 was more than 200 µM and the IC50 came out at 66.1 µM.

Take `CCCCOC(=O)c1ccc(N)cc1`: the EC50 is more than 200 µM.

In the case of `O=C1OC2(c3ccc(O)cc3Oc3cc(O)ccc32)c2c1c(-c1ccccc1)c(-c1ccccc1)c(-c1ccccc1)c2-c1ccccc1`, the 50% effective concentration (EC50) amounted to 10 µM and the IC50 worked out at 16.6 µM.

`COc1cc(OC)c(SSCCCCS(=O)O)c(OC)c1`: the result was inactive.

In the case of `CC(=O)C1C(=O)C(=O)N(c2ccc(Br)cc2)C1=O` (stereo not drawn), the result was inactive.

`O=C1C2CCCCC2C(=O)N1n1c(Cc2ccccc2)n[nH]c1=O` (stereo not drawn): the EC50 was more than 200 µM and the half-inhibitory concentration (IC50) is more than 200 µM.

As for `CC1(C)O[C@H]2OC(CO)C(N=[N+]=[N-])[C@H]2O1` (stereo partly drawn), the EC50 was more than 200 µM and the IC50 was more than 200 µM.

`C/C=C/CC(C)C(OS(=O)(=O)O)C1C(=O)NC(CC)C(=O)N(C)CC(=O)N(C)C(CC(C)C)C(=O)NC(C(C)C)C(=O)N(C)C(CC(C)C)C(=O)NC(C)C(=O)NC(C)C(=O)N(C)C(CC(C)C)C(=O)N(C)C(CC(C)C)C(=O)N(C)C(C(C)C)C(=O)N1C` (stereo not drawn): the EC50 was 0.661 µM and the IC50 came to 6.61 µM.

Regarding `CCc1cc2c(oc3cc4ccccc4cc32)c(=O)[nH]1`, the EC50 was more than 200 µM and the IC50 was more than 200 µM.

Regarding `CC(=O)OC1COC(OC2CC3(C)C4CC=C5C(C=C(O)CC5(C)C)[C@]4(C)CC[C@]3(C)C2C(C)(O)C(=O)/C=C/C(C)(C)O)C(OC(C)=O)C1O` (stereo partly drawn), the outcome was inactive.

On to `O=[N+]([O-])c1ccccc1S(=O)(=O)c1ccc(Cl)cc1`, for which the EC50 is 12.3 µM and 20.9 µM; the IC50 was 50.1 µM and 81.3 µM.

In the case of `CC1=C(Br)C(c2ccccc2)=Nc2ccccc2N1`, the EC50 is more than 200 µM and the half-inhibitory concentration (IC50) came out at 33.1 µM.

For the compound `CC(=O)OCC1OC(n2c(=S)n(-c3ccccc3)c(=O)c3cc(Br)ccc32)C(OC(C)=O)C(OC(C)=O)C1OC(C)=O` (stereo not drawn), the EC50 was more than 10.7 µM and the half-inhibitory concentration (IC50) is more than 10.7 µM.

Turning to `COc1ccc(NC(=S)Nc2cc(C)ccn2)cc1`, the EC50 is more than 200 µM and the concentration for half-maximal inhibition (IC50) is more than 200 µM.

As for `COc1ccc(NC(=O)CC2SC(=Nc3ccccc3C)NC2=O)c([N+](=O)[O-])c1` (stereo not drawn), the result was inactive.

As for `CC1OC(OC2C(O[C@H]3CC[C@@]4(C)[C@@H](CC[C@@H]5[C@@H]4CC[C@]4(C)[C@@H]6[C@H](C[C@@H]54)O[C@]4(CC[C@@H](C)CO4)[C@H]6C)C3)OC(CO)C(OC3OC(CO)C(O)C(OC4OCC(O)C(O)C4O)C3OC3OCC(O)C(O)C3O)C2O)C(O)C(O)C1O` (stereo partly drawn), the EC50 was more than 2 µM and the IC50 worked out at 0.832 µM.

As to `CSCCC(NC(=O)C(CC(C)C)NC(=O)CNC(=O)OC(C)(C)C)C(=O)N(C)C` (stereo not drawn) (Boc-Gly-Leu-Met-NMe2; configuration not given here), the EC50 was more than 200 µM and the IC50 is more than 200 µM.

Regarding `c1ccc2c(c1)SCCc1nncn1-2`, the EC50 is more than 437 µM and the IC50 was more than 437 µM.

With `CCN1C(c2ccccc2)=CC(c2ccccc2)(C(Cl)(Cl)Cl)C=C1c1ccccc1`, the EC50 was more than 200 µM and the concentration for half-maximal inhibition (IC50) was 1.78 µM.

Consider `OC(Nc1ccccn1)(C(F)(F)F)C(F)(F)F`, for which the EC50 was more than 200 µM and the 50% inhibitory concentration (IC50) was more than 200 µM.

Consider `COc1ccc2c(c1)CCC1OC(c3cccnc3)OC21` (stereo not drawn), for which the EC50 is more than 200 µM and the IC50 stood at 30.2 µM.

As for `COc1ccc(C(=O)Nc2ccc(S(=O)(=O)NCC(=O)O)cc2)cc1`, the result was inactive.

`CN(C)c1cccc(NC2=NCCO2)c1`: the EC50 was more than 200 µM and the IC50 came out at 33.9 µM.

Turning to `CC(=O)NC(C)(C)C1CC=C(C)/C(=N\O)C1` (stereo not drawn), the EC50 is more than 1120 µM and the IC50 is 776 µM.

On to `Clc1cc2nnn(C3CCCO3)c2cc1Cl` (stereo not drawn), for which the EC50 was more than 200 µM and the concentration for half-maximal inhibition (IC50) worked out at 123 µM.

As for `C/C(Cc1[nH]nc2c1c(=O)oc1ccc3ccccc3c12)=N\N`, the EC50 was more than 200 µM and the IC50 came to 12.6 µM.

Turning to `c1ccc(Oc2cccc(Oc3ccc4c(c3)-c3nc-4nc4[nH]c(nc5nc(nc6[nH]c(n3)c3ccc(Oc7cccc(Oc8ccccc8)c7)cc63)-c3cc(Oc6cccc(Oc7ccccc7)c6)ccc3-5)c3ccc(Oc5cccc(Oc6ccccc6)c5)cc43)c2)cc1`, the EC50 was more than 3.02 µM and the IC50 was more than 3.02 µM.

For the compound `COC(=O)C1CCCC2(C1)OCCO2` (stereo not drawn), the EC50 was more than 251 µM and the half-maximal inhibitory concentration (IC50) was more than 251 µM.

Regarding `CCOC(=O)NC(=O)c1cn(CCSCCOC(=O)NCCCCCCNC(=O)OCCSCCn2cc(C(=O)NC(=O)OCC)c(=O)[nH]c2=O)c(=O)[nH]c1=O`, the outcome was inactive.

For `O=S(=O)(C1CCCCC1)N1N=NC2CCCCC21` (stereo not drawn), the EC50 is more than 200 µM and the half-inhibitory concentration (IC50) was more than 200 µM.

In the case of `Cc1cc(-c2ccco2)c(C#N)c(=S)n1C1OC(CO)C(O)C(O)C1O` (stereo not drawn), the EC50 was more than 200 µM and the 50% inhibitory concentration (IC50) is more than 200 µM.

Consider `COc1cccc(/C=N/[N-]C(N)=O)c1[O-].[Co+2].[OH3+].c1ccncc1`, for which the EC50 was more than 14.5 µM and the 50% inhibitory concentration (IC50) was more than 14.5 µM.

Consider `O=C(/C=C/c1ccc(OCC(=O)N2CCN(c3ccccc3)CC2)cc1)c1ccccc1`, for which the EC50 was more than 23.4 µM and the half-inhibitory concentration (IC50) was more than 23.4 µM.

Take `COC(=O)C1=C(OC)C(=P2(c3ccccc3)CC(c3ccccc3)=C2c2ccccc2)C(C(=O)OC)=C1C(=O)OC` (stereo not drawn): the result was inactive.

Regarding `COc1c(C(C)C)cc(O)c2c1CCC1C(C)=C(C(=O)O)CCC21C` (stereo not drawn), the EC50 was more than 200 µM and the IC50 worked out at 110 µM.

Turning to `O=[N+]([O-])/C=C/c1cc2ccc3ccccc3c2[nH]1`, the EC50 was more than 200 µM and the 50% inhibitory concentration (IC50) amounted to 1.02 µM.

Consider `CCN(CC)C(=O)O/N=C/c1ccccc1`, for which the EC50 is more than 200 µM and the 50% inhibitory concentration (IC50) was more than 200 µM.

Take `Cc1cccc(/C(Br)=C2/OC(=O)c3ccccc32)c1`: the EC50 is more than 200 µM and the half-maximal inhibitory concentration (IC50) is 182 µM.

As for `COc1cccc(C=C2C(=O)NC(=O)NC2=O)c1`, the EC50 is more than 145 µM and the half-maximal inhibitory concentration (IC50) is more than 145 µM.

Regarding `NC(CC(C(=O)O)c1ccccc1)C(=O)O` (stereo not drawn), the EC50 is more than 200 µM and the IC50 is 112 µM.

In the case of `C=C1C(=O)O[C@@H]2[C@H]1CCC(C)=C1C=CC(=O)[C@]12C`, the result was inactive.

`SCCN1CCCN(CCS)CCC1`: the EC50 is more than 200 µM and the 50% inhibitory concentration (IC50) was determined as 135 µM.

On to `COCCN1C(=O)C(NC(C)=O)[C@H]1COC(C)(C)C` (stereo partly drawn), for which the EC50 was more than 661 µM and the IC50 is more than 661 µM.

On to `Cc1cc2ccc([N+](=O)[O-])cn2c1`, for which the EC50 was more than 200 µM and the concentration for half-maximal inhibition (IC50) stood at 115 µM.

The record behind these values is PubChem BioAssay AID179 (DTP/NCI, 2004).
